Target: T1, Carbonic anhydrase (Candida albicans (strain SC5314 / ATCC MYA-2876) (Yeast), UniProt Q5AJ71)
T1 sequence (Q5AJ71 whole entry): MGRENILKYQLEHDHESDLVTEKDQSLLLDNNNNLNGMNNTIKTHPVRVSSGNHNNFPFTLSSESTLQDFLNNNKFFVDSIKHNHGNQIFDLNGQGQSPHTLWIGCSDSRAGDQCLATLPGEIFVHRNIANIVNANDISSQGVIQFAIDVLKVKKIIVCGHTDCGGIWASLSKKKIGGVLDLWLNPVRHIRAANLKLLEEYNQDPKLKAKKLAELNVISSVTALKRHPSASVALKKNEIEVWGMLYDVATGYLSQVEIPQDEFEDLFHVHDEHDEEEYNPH

Row | SMILES | Ki [nM]
1 | Nc1cc(Cl)c(S(N)(=O)=O)cc1S(N)(=O)=O | 874
2 | NS(=O)(=O)c1ccc(C(=O)O)cc1 [CARZENIDE] | 861
3 | Nc1cc(C(F)(F)F)c(S(N)(=O)=O)cc1S(N)(=O)=O [2,4-DISULFAMYLTRIFLUOROMETHYLANILINE] | 6110
4 | Nc1ccc(S(=O)(=O)Nc2nnc(S(N)(=O)=O)s2)cc1 | 1090
5 | Nc1ccc(S(N)(=O)=O)cc1Cl | 1340
6 | NS(=O)(=O)c1nnc(-c2ccccc2Cl)s1 | 1290
7 | NCc1ccc(S(N)(=O)=O)cc1 [MAFENIDE] | 1110
8 | Nc1ccc(S(N)(=O)=O)cc1F | 1240
9 | Cc1ccc(-c2cc(C(F)(F)F)nn2-c2ccc(S(N)(=O)=O)cc2)cc1 [CELECOXIB] | 1020
10 | NS(=O)(=O)c1ccc(CO)cc1 | 383
11 | Cn1nc(S(N)(=O)=O)sc1=N | 1370
12 | CCN[C@H]1CN(CCCOC)S(=O)(=O)c2sc(S(N)(=O)=O)cc21 [BRINZOLAMIDE] | 1100
13 | NS(=O)(=O)c1ccc(CCO)cc1 | 1210
14 | CC1(C)O[C@@H]2[C@@H](CO[C@@]3(COS(N)(=O)=O)OC(C)(C)O[C@@H]23)O1 [TOPIRAMATE] | 1110
15 | O=C1NS(=O)(=O)c2ccccc21 [SACCHARIN] | 736
16 | Nc1nccc(Nc2ccc(S(N)(=O)=O)cc2)n1 | 1110
17 | NCCc1ccc(S(N)(=O)=O)cc1 | 3200
18 | Nc1ccc(S(N)(=O)=O)cc1 [SULFANILAMIDE] | 7630
19 | Nc1ccc(S(=O)(=O)NCc2ccc(S(N)(=O)=O)cc2)cc1 | 1310
20 | NS(=O)(=O)c1nnc(NS(=O)(=O)c2ccccc2)s1 [BENZOLAMIDE] | 1510
21 | Nc1ccc(S(N)(=O)=O)cc1Br | 408
22 | Nc1ccc(S(=O)(=O)NCCc2ccc(S(N)(=O)=O)cc2)cc1 | 727
